Values of other authors as cited in paper PMC5427847, “Epilepsy-associated GRIN2A mutations reduce NMDA receptor trafficking and agonist potency – molecular profiling and functional rescue” (Scientific Reports, 2017).

What was measured:
D732A-GluN1 = conditions: competitive glycine site antagonist
[1] = system: GluN2A K484 to aspartic acid; conditions: K484 to aspartic acid versus wild type
[2] = system: GluN1 D732 mutated to alanine, co-expressed with GluN2A; conditions: receptor remaining on the cell surface

SMILES: O=C(O)c1cc(=O)c2c(Cl)cc(Cl)cc2[nH]1 [DCKA]
- Rescue of mutant receptors trapped within the ER (D732A-GluN1): has been achieved

SMILES: N[C@@H](CCC(=O)O)C(=O)O [Glutamate, glutamate]
- Reduction of glutamate affinity [1]: 6 fold

SMILES: NCC(=O)O [Glycine, glycine]
- Reduction in glycine potency [2]: 4000 fold
- Effect on glycine binding [1]: no measurable effect
